# Assay results published in US20040147595A1, “Biofilm degrading or sloughing compositions and methods” (priority 2001, published 2004).
# How the values were obtained:
# [1] = test system: OHHL induced LuxR dependent expression of GFP; settings: E. coli MT102 (pJBA89); cited from earlier work
# [2] = test system: V. fisheri lux quorum sensing system (LuxR); assay: V. fisheri luxR PluxI-gfp(ASV) reporter in PAO-JP2 biofilm; assay type: cell-based, Pseudomonas aeruginosa; settings: 250 nM OHHL
# Description: P. aeruginosa biofilms. Biofilms were grown at 30° C. in three-dimensional flow cells (Christensen et al., 1999) with individual channel dimensions of 0.3×4×40 mm supplied With ABt minimal medium supplemented with 2% LB. The flow system was assembled and prepared as described by Christensen et al. (1999). The substratum consisted of a microscope glass coverslip (Knittel 24×50 mm st1, Knittel Glaser, Braunschweig, Germany). Cultures for inoculation of the flow channels were prepared in the following way: P. aeruginosa strains were streaked on LB plates with the appropriate antibiotics and incubated for 24 h at 37° C. From each plate a single colony was used for inoculation of 10 ml ABt with 10% LB. The cultures were grown at, 30° C. for 18 h before they were diluted to an OD600 nm of 0.1 in sterile 0.9% NaCl and used for inoculation of the flow channels. Medium flow was kept at a constant rate of 3 mL/h, equivalent to a mean flow velocity of 0.7 mm/s, using a Watson-Marlow 205S peristaltic pump (Watson-Marlow, Falmouth, England). Biofilms were grown for 24 hours before being shifted to media containing AHL and furanone.
# Scanning confocal laser microscopy (SCLM). Microscopic inspection and image acquisition were performed an a scanning confocal laser microscope (model TCS4D, Leica Lasertechnik GmbH, Heldelberg, Germany) equipped with a 63×/1.32-0.6 oil objective. The microscope was equipped with a motorized and programmable xy-stage, which was used for monitoring single colonies during the biofilm experiments. At the beginning of each online experiment, the microscope was programmed to track single randomly selected microcolonies; the sensitivity of photo multipliers and the laser intensity were adjusted and thereafter kept constant through out the duration of the experiments. Image scanning was carried out using the 488 nm and 568 nm lines of an Ar/Kr laser for detection of Gfp and Rfp, respectively. Visualization of captured images was performed using the IMARIS software package (Bitplane AG, Zúrich, Switzerland) running on a Silicon Graphics Indigo 2 workstation (Silicon Graphics, Mountain View, Calif. USA).
# Repression of LuxR-activated quorum sensing controlled gene transcription. We speculated that the AHL-antagonstic properties of furanone 56 was specific to the P. aeruginosa las quorum sensing system. To test this, a previously published quorum sensing reporter based on the Vibro fisherf luxR gene and Pluxl-gfp(ASV) (Anderson at al, 2001; Wu et al, 2000) was transferred to PAO-JP2.
# [3] = test system: OHHL induced LuxR dependent expression of GFP; assay: Quantitative furanone inhibition of the LuxR-PluxI-gfp(ASV) quorum sensor in E. coli MT102 (pJBA89); assay type: cell-based, Escherichia coli; settings: gradient of furanone concentration lowering RFU to 40% versus OHHL concentration (5-100 nM)
# Text: To analyse the AHL antagonist activity of the halogenated furanones we tested the compounds for their ability to inhibit 3oxo-C6-HSL (OHHL) induced LuxR dependent expression of green fluorescent protein (GFP) from a Pgfp(ASV) fusion in the AHL monitor strain E. coli MT102 harbouring pJBA89 (Andersen et al., 2001).
# The medium used is minimal ABT containing 0.5% glucose and 0.5% Casamino Acids. In growing cultures of the AHL monitor strain E. coli Mt102 (pJBA89) encoding […] and a P-gfp(ASV) fusion, GFP(ASV) is produced immediately upon OHHL addition specifically from the LuxR controlled P-gfp(ASV) fusion gene. The sensitivity is high (responsive to as little as 3 nm OHHL) and due to the instability built into the GFP (ASV) variant there is no background production of green fluoroscence (Andersen et al., 2001). GFP expression from the AHL monitor strain E. coli MT102 (pJBA89) and the control strain MT102 harbouring the lacl^q, Plas-gfp(ASV) IPTG inducible expression system pMH197 was quantified in the following way. Overnight cultures were diluted four fold in fresh medium and incubated for one hour at 30° C. while OHHL and furanone compounds in the required concentrations were mixed in the wells of microtiter dishes. […] When absolute values were required, green fluoroscence was measured on a fluorometer (model RF-1501; Shimadzu, Tokyo, Japan) act at an excitation wavelength of 475 nm and emission detection at 515 nm. To establish a correlation between the colour code of the ARGUS-50 captured images and green fluorescence, both colour and relative fluorescence units (RFU), were determined for a dilution series of an E. coli MT102 (pJBA89) culture which had been incubated with […]. […]
# From the second plot, the furanone concentration reducing the relative activity to 40% (ID60) is determined for each OHHL concentration. […]
# To enable easy comparison of the strength of the furanones, an inhibition index (IIX40) is calculated for each furanone compound. […]
# bacterial growth = assay: Bacterial growth inhibition at the concentrations tested in the quorum sensor assay; assay type: cell-based
# Text: The natural compound 2 has an IIX40 0.75 where as compound 30 and […] have IIX40 of 0.01 and 0.51 respectively.
Structure (SMILES),lowest OHHL concentration the monitor strain responds to [1],green fluorescence of biofilm [2],inhibition index (IIX40) [3],concentration slightly above which growth was inhibited (bacterial growth)
"CCCC(=O)CC(=O)N[C@H]1CCOC1=O [OHHL, N-[3-oxo-hexanoyl]-L-homoserine lactone, reference compound]",3 nm,developed within one hour,–,–
O=C1C=C(Br)/C(=C/Br)O1 [Compound 30],–,–,0.01 mole of furanone per mmole of,above 10 nm
